US8648071B2, “Hydrazonamide compounds that modulate Hsp90 activity” (Synta Pharmaceuticals Corp., priority 2008, dated 2014)

Tested on: Her2
Experiment: Degradation of Her2 in BT-474 cells, Western blot (Method 1)
Format: cell-based, human
Settings: 0.5 μM, overnight
Method: Human high-Her2 breast carcinoma BT474 (HTB-20), SK-BR-3 (HTB-30) and MCF-7 breast carcinoma (HTB-22) from American Type Culture Collection, VA, USA were grown in Dulbecco's modified Eagle's medium with 4 mM L-glutamine and antibiotics (100 IU/ml penicillin and 100 μg/ml streptomycine; GibcoBRL). To obtain exponential cell growth, cells were trypsinized, counted and seeded at a cell density of 0.5×10^6 cells/ml regularly, every 3 days. All, experiments were performed on day 1 after cell passage.
BT-474 cells are treated with 0.5 μM, 2 μM, or 5 μM of 17AAG (a positive control) or 0.5 μM, 2 μM, or 5 μM of a compound of the invention overnight in DMEM medium. After treatment, each cytoplasmic sample is prepared from 1×10^6 cells by incubation of cell lysis buffer (#9803, Cell Signaling Technology) on ice for 10 minutes. The resulting supernatant used as the cytosol fractions is dissolved with sample buffer for SDS-PAGE and run on a SDS-PAGE gel, blotted onto a nitrocellulose membrane by using semi-dry transfer. Non-specific binding to nitrocellulose is blocked with 5% skim milk in TBS with 0.5% Tween at room temperature for 1 hour, then probed with anti-Her2/ErB2 mAb (rabbit IgG, #2242, Cell Signaling) and anti-Tubulin (T9026, Sigma) as housekeeping control protein. […]

## C=CCNC1=C2C[C@@H](C)C[C@H](OC)[C@H](O)[C@@H](C)/C=C(\C)[C@H](OC(N)=O)[C@@H](OC)/C=C\C=C(/C)C(=O)NC(=CC1=O)C2=O [Compound 17AAG, 17-allylamino-17-demethoxygeldanamycin]
  degradation of Her2: partial degradation of Her2
